This assay addresses human mGlu5a receptor (Homo sapiens (Human), UniProt P41594). Description: Intracellular Ca2+ mobilization assay (mGlu5 PAM). As to conditions: for EC50: HEK-293 cells stably transfected with human mGlu5a, L-glutamate added at EC20 after pre-incubation with test compound, read-out: EC50 (nM) mGlu5PAM; for Emax: maximal response in % of the maximal stimulatory effect obtained with saturating concentrations of L-glutamate, read-out: Eff. (%). It is filed as cell-based. On the procedure: A monoclonal HEK-293 cell line stably transfected with a cDNA encoding for the human mGlu5a receptor was generated; for the work with mGlu5 Positive Allosteric Modulators (PAMs), a cell line with low receptor expression levels and low constitutive receptor activity was selected to allow the differentiation of agonistic versus PAM activity. Cells were cultured according to standard protocols (Freshney, 2000) in Dulbecco's Modified Eagle Medium with high glucose supplemented with 1 mM glutamine, 10% (vol/vol) heat-inactivated bovine calf serum, Penicillin/Streptomycin, 50 μg/ml hygromycin and 15 μg/ml blasticidin (all cell culture reagents and antibiotics from Invitrogen, Basel, Switzerland).
About 24 hrs before an experiment, 5×10^4 cells/well were seeded in poly-D-lysine coated, black/clear-bottomed 96-well plates. The cells were loaded with 2.5 μM Fluo-4AM in loading buffer (1×HBSS, 20 mM HEPES) for 1 hr at 37° C. and washed five times with loading buffer. The cells were transferred into a Functional Drug Screening System 7000 (Hamamatsu, Paris, France), and 11 half logarithmic serial dilutions of test compound at 37° C. were added and the cells were incubated for 10-30 min. with on-line recording of fluorescence. Following this pre-incubation step, the agonist L-glutamate was added to the cells at a concentration corresponding to EC20 (typically around 80 μM) with on-line recording of fluorescence; in order to account for day-to-day variations in the responsiveness of cells, the EC20 of glutamate was determined immediately ahead of each experiment by recording of a full dose-response curve of glutamate.
Responses were measured as peak increase in fluorescence minus basal (i.e. fluorescence without addition of L-glutamate), normalized to the maximal stimulatory effect obtained with saturating concentrations of L-glutamate. Graphs were plotted with the % maximal stimulatory using XLfit, a curve fitting program that iteratively plots the data using Levenburg Marquardt algorithm. The single site competition analysis equation used was y=A+((B−A)/(1+((x/C)D))), where y is the % maximal stimulatory effect, A is the minimum y, B is the maximum y, C is the EC50, x is the log10 of the concentration of the competing compound and D is the slope of the curve (the Hill Coefficient). From these curves the EC50 (concentration at which half maximal stimulation was achieved), the Hill coefficient as well as the maximal response in % of the maximal stimulatory effect obtained with saturating concentrations of L-glutamate were calculated.
A depression of the signal observed after addition of the EC20 concentration of L-glutamate was indicative of an inhibitory activity of the test compound.

Chain of human mGlu5a receptor (P41594 other isoform, or with tags, fused parts or gaps): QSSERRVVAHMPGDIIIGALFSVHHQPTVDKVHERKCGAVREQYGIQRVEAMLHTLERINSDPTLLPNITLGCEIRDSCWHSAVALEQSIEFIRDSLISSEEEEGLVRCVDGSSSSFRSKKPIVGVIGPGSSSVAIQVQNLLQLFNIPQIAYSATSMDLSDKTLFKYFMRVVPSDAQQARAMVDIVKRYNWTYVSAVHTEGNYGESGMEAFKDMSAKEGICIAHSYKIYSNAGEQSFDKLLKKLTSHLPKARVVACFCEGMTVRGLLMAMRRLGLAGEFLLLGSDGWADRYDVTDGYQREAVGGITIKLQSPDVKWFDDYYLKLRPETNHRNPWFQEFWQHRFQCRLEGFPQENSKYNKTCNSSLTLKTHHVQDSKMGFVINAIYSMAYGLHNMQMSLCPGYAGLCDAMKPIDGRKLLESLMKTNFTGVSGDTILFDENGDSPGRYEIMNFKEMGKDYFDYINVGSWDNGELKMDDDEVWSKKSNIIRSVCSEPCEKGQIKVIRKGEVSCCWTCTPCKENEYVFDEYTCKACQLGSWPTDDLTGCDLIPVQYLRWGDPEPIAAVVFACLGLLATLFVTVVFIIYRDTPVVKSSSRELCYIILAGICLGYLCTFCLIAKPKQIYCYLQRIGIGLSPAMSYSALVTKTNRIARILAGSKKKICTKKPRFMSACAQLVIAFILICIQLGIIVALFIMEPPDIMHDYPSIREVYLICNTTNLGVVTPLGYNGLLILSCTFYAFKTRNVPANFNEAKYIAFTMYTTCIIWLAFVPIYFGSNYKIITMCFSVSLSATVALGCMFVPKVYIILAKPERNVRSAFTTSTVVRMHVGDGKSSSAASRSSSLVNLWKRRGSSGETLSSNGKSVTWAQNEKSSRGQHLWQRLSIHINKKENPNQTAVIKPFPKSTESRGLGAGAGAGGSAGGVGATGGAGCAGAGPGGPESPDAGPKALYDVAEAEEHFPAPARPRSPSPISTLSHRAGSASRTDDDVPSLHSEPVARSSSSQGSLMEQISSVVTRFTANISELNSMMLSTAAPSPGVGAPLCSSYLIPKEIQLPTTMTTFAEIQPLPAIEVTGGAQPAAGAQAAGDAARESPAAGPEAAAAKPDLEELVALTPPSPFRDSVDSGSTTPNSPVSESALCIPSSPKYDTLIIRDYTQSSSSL

For the compound `CC1(C)CN(c2ccc(C#Cc3ccccc3)nn2)C(=O)O1` [Example 152, 5,5-Dimethyl-3-(6-(phenylethynyl)pyridazin-3-yl)oxazolidin-2-one], the concentration giving a half-maximal response (EC50) turned out to be 15 nM and the Emax amounted to 112%.

In the case of `COC1C(=O)N(c2ncc(C#Cc3ccccc3)cn2)CC1(C)C` (racemic) [Example 127, (RS)-3-Methoxy-4,4-dimethyl-1-(5-phenylethynyl-pyrimidin-2-yl)-pyrrolidin-2-one], the EC50 is 29 nM and the Emax came to 94%.

Take `COC1C(=O)N(c2ccc(C#Cc3cccc(F)c3)cn2)CC1(C)C` (racemic) [Example 65, (RS)-1-[5-(3-Fluoro-phenylethynyl)-pyridin-2-yl]-3-methoxy-4,4-dimethyl-pyrrolidin-2-one]: the EC50 is 43 nM and the Emax came to 91%.

`CC1(C)CCN(c2cnc(C#Cc3cccc(F)c3)cn2)C(=O)N1` [Example 166, 1-(5-((3-Fluorophenyl)ethynyl)pyrazin-2-yl)-4,4-dimethyltetrahydropyrimidin-2(1H)-one]: the 50% effective concentration (EC50) was found to be 140 nM and the Emax came out at 56%.

For `O=C1N(c2ccc(C#Cc3cccc(F)c3)cn2)CC2CCCCN12` (racemic) [Example 71, (RS)-2-[5-(3-Fluoro-phenylethynyl)-pyridin-2-yl]-hexahydro-imidazo[1,5-a]pyridin-3-one], the 50% effective concentration (EC50) worked out at 17 nM and the Emax was found to be 41%.

Consider `CC1(C)CC(=O)N(c2ccc(C#Cc3ccccc3)cn2)C1` [Example 13, 4,4-Dimethyl-1-(5-phenylethynyl-pyridin-2-yl)-pyrrolidin-2-one], for which the half-maximal effective concentration (EC50) amounted to 37 nM and the Emax was determined as 129%.

As to `CN1C(=O)N(c2ccc(C#Cc3ccccc3)cn2)CCC1(C)C` [Example 67, 3,4,4-Trimethyl-1-(5-phenylethynyl-pyridin-2-yl)-tetrahydro-pyrimidin-2-one], the concentration for a half-maximal effect (EC50) was 15 nM and the Emax is 81%.

`CO[C@H]1C(=O)N(c2ncc(C#Cc3ccccc3)cn2)CC1(C)C` (single isomer, unassigned) [Example 129]: the concentration giving a half-maximal response (EC50) is 18 nM and the Emax is 90%.

As to `CC(C)N1C(=O)N(c2ncc(C#Cc3cccc(F)c3)cn2)CC1(C)C` [Example 141, 1-[5-(3-Fluoro-phenylethynyl)-pyrimidin-2-yl]-3-isopropyl-4,4-dimethyl-imidazolidin-2-one], the EC50 is 28 nM and the Emax amounted to 39%.

In the case of `CN1C(=O)N(c2ccc(C#Cc3cncc(Cl)c3)cn2)CC1(C)C` [Example 51, 1-[5-(5-Chloro-pyridin-3-ylethynyl)-pyridin-2-yl]-3,4,4-trimethyl-imidazolidin-2-one], the EC50 came out at 29 nM and the Emax worked out at 45%.

As for `CC1(C)CCN(c2cnc(C#Cc3ccccc3)cn2)C(=O)C1` [Example 163, 4,4-Dimethyl-1-(5-(phenylethynyl)pyrazin-2-yl)piperidin-2-one], the EC50 was found to be 69 nM and the Emax was 74%.

For the compound `CN1C(=O)N(c2ncc(C#Cc3ccc(F)cc3)cc2F)CC1(C)C` [Example 110], the EC50 amounted to 96 nM and the Emax turned out to be 117%.

On to `CN1C(=O)N(c2ccc(C#Cc3cccc(F)c3)cn2)[C@@H]2CCC[C@@H]21` (racemic) [Example 109, (3aSR,6aRS)-1-[5-(3-Fluoro-phenylethynyl)-pyridin-2-yl]-3-methyl-hexahydro-cyclopenta-imidazol-2-one], for which the EC50 was 18 nM and the Emax was determined as 37%.

With `O=C1CC2(CCCC2)CN1c1ccc(C#Cc2ccccc2)cn1` [Example 59, 2-(5-Phenylethynyl-pyridin-2-yl)-2-aza-spiro[4.4]nonan-3-one], the half-maximal effective concentration (EC50) turned out to be 16 nM and the Emax is 81%.

With `CC1(C)CCN(c2ccc(C#Cc3cncc(F)c3)cn2)C(=O)O1` [Example 74, 3-[5-(5-Fluoro-pyridin-3-ylethynyl)-pyridin-2-yl]-6,6-dimethyl-[1,3]oxazinan-2-one], the EC50 was 59 nM and the Emax was determined as 108%.

Consider `CC1(C)CC(=O)N(c2ncc(C#Cc3cccc(Cl)c3)cn2)C1` [Example 119, 1-[5-(3-Chloro-phenylethynyl)-pyrimidin-2-yl]-4,4-dimethyl-pyrrolidin-2-one], for which the concentration for a half-maximal effect (EC50) is 11 nM and the Emax was 26%.

In the case of `CC1CN(c2ncc(C#Cc3ccc(F)cc3)cn2)C(=O)OC1(C)C` (racemic) [Example 149, (RS)-3-[5-(4-Fluoro-phenylethynyl)-pyrimidin-2-yl]-5,6,6-trimethyl-[1,3]oxazinan-2-one], the concentration giving a half-maximal response (EC50) worked out at 114 nM and the Emax came out at 78%.

As to `CC1(C)CCN(c2cnc(C#Cc3cccc(F)c3)cn2)C(=O)C1` [Example 161, 1-(5-((3-Fluorophenyl)ethynyl)pyrazin-2-yl)-4,4-dimethylpiperidin-2-one], the 50% effective concentration (EC50) worked out at 29 nM and the Emax came out at 68%.

As to `CO[C@@H]1C(=O)N(c2ncc(C#Cc3ccccc3)cn2)CC1(C)C` (single isomer, unassigned) [Example 128], the EC50 came out at 46 nM and the Emax was found to be 54%.

Take `CC1(C)CC(=O)N(c2ccc(C#Cc3cccc(F)c3)cn2)C1` [Example 40, 1-[5-(3-Fluoro-phenylethynyl)-pyridin-2-yl]-4,4-dimethyl-pyrrolidin-2-one]: the EC50 stood at 15 nM and the Emax turned out to be 100%.

Take `CO[C@@H]1C(=O)N(c2ncc(C#Cc3cccc(F)c3)cn2)CC1(C)C` (single isomer, unassigned) [Example 131, (R or S)-1-[5-(3-Fluoro-phenylethynyl)-pyrimidin-2-yl]-3-methoxy-4,4-dimethyl-pyrrolidin-2-one]: the EC50 amounted to 35 nM and the Emax is 48%.

Turning to `O=C1O[C@H]2CCC[C@@H]2CN1c1ccc(C#Cc2ccccc2)cn1` (racemic) [Example 102, (4aRS,7aSR)-3-(5-Phenylethynyl-pyridin-2-yl)-hexahydro-cyclopenta[e][1,3]oxazin-2-one], the half-maximal effective concentration (EC50) was determined as 43 nM and the Emax came to 115%.

Regarding `O=C1OC2(CCCCC2)CN1c1ccc(C#Cc2ccccc2)cn1` [Example 12, 3-(5-Phenylethynyl-pyridin-2-yl)-1-oxa-3-aza-spiro[4.5]decan-2-one], the EC50 was 67 nM and the Emax amounted to 80%.

Consider `CCN1C(=O)N(c2ccc(C#Cc3ccccc3)cn2)CC1(C)C` [Example 17, 3-Ethyl-4,4-dimethyl-1-(5-phenylethynyl-pyridin-2-yl)-imidazolidin-2-one], for which the EC50 is 66 nM and the Emax was 103%.

For the compound `COCC1CN(c2ccc(C#Cc3ccccc3)cn2)C(=O)O1` (racemic) [Example 2, (5RS)-5-Methoxymethyl-3-(5-phenylethynyl-pyridin-2-yl)-oxazolidin-2-one], the EC50 is 47 nM and the Emax was determined as 34%.

In the case of `CN1C(=O)N(c2ncc(C#Cc3ccccc3)cn2)CC1(C)C` [Example 122, 3,4,4-Trimethyl-1-(5-phenylethynyl-pyrimidin-2-yl)-imidazolidin-2-one], the EC50 came out at 11 nM and the Emax amounted to 36%.

For `CN1C(=O)N(c2cnc(C#Cc3cccc(F)c3)cn2)CC1(C)C` [Example 158, 1-(5-((3-Fluorophenyl)ethynyl)pyrazin-2-yl)-3,4,4-trimethylimidazolidin-2-one], the half-maximal effective concentration (EC50) amounted to 46 nM and the Emax is 36%.

As to `CC1(C)OC(=O)N(c2ccc(C#Cc3ccccc3)cn2)CC1O` (racemic) [Example 95, (RS)-5-Hydroxy-6,6-dimethyl-3-(5-phenylethynyl-pyridin-2-yl)-[1,3]oxazinan-2-one], the EC50 worked out at 47 nM and the Emax is 118%.

As to `O=C1CC2(COC2)CN1c1ccc(C#Cc2ccccc2)cn1` [Example 82, 6-(5-Phenylethynyl-pyridin-2-yl)-2-oxa-6-aza-spiro[3.4]octan-7-one], the concentration for a half-maximal effect (EC50) turned out to be 57 nM and the Emax worked out at 72%.

Regarding `CC1(C)OC(=O)N(c2ccc(C#Cc3ccccc3)cn2)C1(C)C` [Example 28, 4,4,5,5-Tetramethyl-3-(5-phenylethynyl-pyridin-2-yl)-oxazolidin-2-one], the EC50 stood at 48 nM and the Emax is 31%.

Take `Cc1cccc(C#Cc2ccc(N3CC(C)(C)N(C)C3=O)nc2)c1` [Example 56, 3,4,4-Trimethyl-1-(5-m-tolylethynyl-pyridin-2-yl)-imidazolidin-2-one]: the EC50 turned out to be 87 nM and the Emax came out at 56%.

(Values after patent publication US9315498B2, “Arlethynyl derivatives” (Hoffmann-La Roche Inc., priority 2010, dated 2016).)
